Data on two compounds can be found in patent US20050148605A1, “Amide derivatives as ABL modulators” (Ambit Biosciences Corporation, priority 2003, published 2005).

One assay addresses T1, ABL1(DKIN) (Homo sapiens, UniProt P00519).
T1 construct: column label 'AB L1(DKIN)'; fused on or other part: Fused to a T7 bacteriophage particle (phage display)
T1 sequence (P00519 242-493 limits assumed): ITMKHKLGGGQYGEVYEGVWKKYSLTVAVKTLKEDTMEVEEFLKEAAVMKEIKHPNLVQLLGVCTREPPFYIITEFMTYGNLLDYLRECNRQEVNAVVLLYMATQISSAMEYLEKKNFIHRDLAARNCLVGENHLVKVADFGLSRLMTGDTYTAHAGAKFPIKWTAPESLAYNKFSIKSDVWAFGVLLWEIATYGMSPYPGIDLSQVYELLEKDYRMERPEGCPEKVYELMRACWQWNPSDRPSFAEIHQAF
The experiment in a line: Binding constant (Kd) measurement, phage-displayed kinase competition binding assay: ABL1(DKIN). The settings on record: competition with immobilized ATP site ligand. An excerpt:
(§1) Binding Constant (Kd) Measurements for Small-Molecule-Kinase Interactions
(§2) The term “ND” represents non-determined values.

For another assay, the target named is T2, ABL1(E274K) (Homo sapiens, UniProt P00519, E255K).
T2 construct: made in house; host or cells: T7 bacteriophage display
As to the kind of experiment: Binding constant (Kd) measurement, phage-displayed kinase competition binding assay: ABL1(E274K). The settings on record: competition with immobilized ATP site ligand.
Description: as §1, §2

T2 sequence (P00519 1-1149 isoform P00519-2 E274K): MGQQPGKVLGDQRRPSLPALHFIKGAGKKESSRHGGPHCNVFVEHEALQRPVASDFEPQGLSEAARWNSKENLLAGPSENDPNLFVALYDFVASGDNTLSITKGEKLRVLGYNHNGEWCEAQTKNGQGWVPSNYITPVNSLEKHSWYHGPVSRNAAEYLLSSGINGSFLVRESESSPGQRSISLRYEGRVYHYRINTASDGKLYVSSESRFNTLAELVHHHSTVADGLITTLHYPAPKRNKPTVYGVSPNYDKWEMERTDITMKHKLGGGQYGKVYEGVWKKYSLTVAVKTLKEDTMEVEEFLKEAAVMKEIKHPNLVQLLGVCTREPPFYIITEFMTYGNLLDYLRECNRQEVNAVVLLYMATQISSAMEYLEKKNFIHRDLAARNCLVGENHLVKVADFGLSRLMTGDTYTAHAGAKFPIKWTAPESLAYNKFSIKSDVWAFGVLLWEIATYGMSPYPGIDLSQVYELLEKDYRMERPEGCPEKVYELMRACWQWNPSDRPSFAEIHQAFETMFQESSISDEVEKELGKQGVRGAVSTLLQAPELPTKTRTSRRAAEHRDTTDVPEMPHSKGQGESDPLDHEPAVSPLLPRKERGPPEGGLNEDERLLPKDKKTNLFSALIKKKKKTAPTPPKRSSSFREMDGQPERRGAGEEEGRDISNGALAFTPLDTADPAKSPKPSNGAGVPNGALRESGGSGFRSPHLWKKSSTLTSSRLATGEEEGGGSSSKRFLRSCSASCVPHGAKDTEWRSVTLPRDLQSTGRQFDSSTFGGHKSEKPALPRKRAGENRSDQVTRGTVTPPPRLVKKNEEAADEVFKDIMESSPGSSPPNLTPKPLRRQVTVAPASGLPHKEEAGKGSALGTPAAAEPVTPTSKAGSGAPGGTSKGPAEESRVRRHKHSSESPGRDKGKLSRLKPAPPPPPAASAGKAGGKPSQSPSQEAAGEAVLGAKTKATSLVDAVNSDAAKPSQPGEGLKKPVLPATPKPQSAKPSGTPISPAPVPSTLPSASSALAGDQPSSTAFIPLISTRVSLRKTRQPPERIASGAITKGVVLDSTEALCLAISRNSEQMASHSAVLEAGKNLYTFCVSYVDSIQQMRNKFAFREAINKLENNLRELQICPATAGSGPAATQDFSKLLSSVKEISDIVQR

As a reminder, the Kd is the free concentration of one partner at which half of the binding sites on the other are occupied at equilibrium, for simple one-to-one binding. Read a high Kd as weaker binding. In the case of `O=C(Cc1ccc(F)cc1)Nc1cc(C2CC2)nn1-c1ccccc1` [Compound E7], the equilibrium dissociation constant (Kd) on ABL1(DKIN) is more than 10 µM.

Regarding `O=C(Cc1ccc(OCc2ccccc2)cc1)Nc1nc2cc(Cl)ccc2o1` [Compound B15], the dissociation constant Kd at ABL1(E274K) was more than 10 µM.
